According to patent publication US20140221460A1, “METHOD FOR IDENTIFYING MODULATORS OF HCV TRANSLATION OR REPLICATION INVOLVING THE NS5B POLYPEPTIDE AND A PSEUDOKNOT” (priority 2011, published 2014):

Tests used:
[1] = tested on: sub-genomic replicon, genotype 1b (Con1b); test: Sub-genomic replicon assay (luciferase); type: cell-based, hepatitis C virus; conditions: FIG. 8
Description: This assay uses a sub-genomic replicon analogous to that described by Lohmann (Lohmann et al., 1999). As above, we co-transfect an RNA encoding renilla […] luciferase to allow normalization of transfection levels. In these assays we usually transfect the sub-genomic replicon (and renilla) RNA 24 hours before addition of the oligonucleotides.
In this assay we investigated inhibition of luciferase gene activity encoding by the sub-genomic replicon and the influence of prior transfection of oligonucleotides directed against SL9266 or SL9571. The sub-genomic replicon is a genotype 1b sequences (Con1b) and directly complementary oligonucleotides directed against SL9266 (labelled anti SL9266_C) inhibit replication by ˜70% (see FIG. 8).

[2] = tested on: translation of hepatitis C virus; test: Translation assay with bicistronic luciferase reporter, co-transfected with oligonucleotides; type: cell-based; conditions: Huh-7.5 cells, added at 1600 nM, normalized to untreated samples
Excerpt: The translation assay uses the bicistronic reporter gene system described in Example 1. In brief, a firefly luciferase reporter gene is under the translational control of the HCV internal ribosome entry site (IRES) as part of the complete 5′ untranslated region of HCV. The luciferase gene is followed by an IRES from an unrelated virus (encephalomyocarditis virus; EMCV) which drives expression of the RNA dependent RNA polymerase (RdRp) of HCV (the NS5B protein) which, in turn, is followed by the HCV 3′ untranslated region (3′ UTR).
All experiments are routinely conducted in human hepatoma cells—Huh-7.5. This is the cell line in which HCV replicates. However, we have also investigated the bicistronic reporter system in HepG2, HeLa and murine cell lines, as well as in cell free translation systems supplemented with Huh-7.5 cell extracts.
The readout of the translation assay is luciferase activity. To control for differences in transfection we co-transfected a separate plasmid encoding renilla luciferase and normalize all firefly results to this.
The translation inhibition assay is typically conducted by co-transfecting RNA generated in vitro from the bicistronic reporter plasmid with oligonucleotides to be tested. Assays for luciferase are routinely conducted four hours post transfection.

[3] = tested on: genotype 2a JFH-1 hepatitis C virus; test: Virus production / virus replication assay (HCVcc, NS5A immunofocal staining); type: cell-based; conditions: JFH-1 in Huh-7.5 cells, compared to untreated cells, FIG. 9
Description: This assay uses the HCVcc system that measures the production of infectious genotype 2a JFH-1 hepatitis C virus as described previously (Wakita et al., 2005). In this assay oligonucleotides directed against RNA sequences or structures are transfected into Huh-7.5 cells and a known amount of virus added 4 hours later. After 24 hours incubation the cell sheet is fixed and virus replication quantified by immunofocal staining for virus antigen (in this instance the NS5A protein). Infected cells are counted using a fluorescence microscope.

Substance: 5′-ACGCTGTGAAAAATGTC-3′ [JFH-1 anti-SL9266 LNA oligonucleotide]
- inhibition of replication (replicon luciferase activity), in words [1]: only partially inhibitory

Substance: 5′-GCACAGCGCAAGTATGTTA-3′ [Randomised LNA oligonucleotide]
- inhibition of translation (maximum) [2]: ~20%
- influence on virus replication, in words [3]: little or no influence

Substance: 5′-GGGCACGAGACAGGCTGTGAT-3′ [Con1b anti-SL9266 LNA oligonucleotide]
- inhibition of replication (replicon luciferase activity) [1]: ~70%
